How the values were obtained:
[1] = SDS-PAGE analysis of glutaraldehyde cross-linked samples (oligomer formation and storage stability); assay type: physicochemical
Experimental: The soluble Aβ oligomers were cross-linked with glutaraldehyde, incubated for 10 minutes at room temperature and then quenched with 1M glycine, 1M Tris-HCl pH 7.5. Cross-linked samples were then diluted to a final concentration of 0.02 μg/μL, in Tris-glycine SDS sample buffer. For analysis, 0.28 μg Aβ (nominal concentration) in either monomeric or oligomeric form was separated by electrophoresis at 125V for about 100 minutes using a 4% to 20% tris-glycine gel (Invitrogen, Carlsbad, Calif.). Gels were then silver stained to visualize the size distribution of the soluble Aβ oligomers. For glutaraldehyde concentration optimization, HFIP-dried Aβ42 or HFIP-dried Aβ40 was solubilized in DMSO (20 mg/mL, 4.4 mM), added to 50 mM phosphate, pH 9.0, to a final concentration of 1.8 mg/mL (400 μM) and incubated at 4° C. overnight, protected from light. […]
As set forth above in Examples 1-4, Aβ42 forms soluble Aβ oligomers in 50 mM phosphate, pH 9.0 buffer during storage at 2° C. to 8° C. However, the optimal concentration for formation, biological activity and storage stability of these oligomeric species during storage was not determined. […] These cross-linked species were not disrupted in the presence of SDS, and therefore, the appropriate size distribution could be determined by SDS-PAGE. […]

[2] = tested on: PC-12 cells; assay: PC-12 MTT reduction assay; assay type: cell-based; settings: for MTT reduction: PC-12 cells
Experimental: PC-12 cells were plated at 30,000 cells/well and allowed to grow overnight at 37° C./5% CO2. Soluble Aβ oligomers or vehicle were added to cells at concentrations of 1 μM and 5 μM. After a four hour incubation at 37° C./5% CO2, the MTT reduction assay was performed (Lambert et al., 2001, J. Neurochem. 79, 595-605). Briefly, MTT (10 μL, 5 mg/mL) was added to each well and allowed to incubate for four hours. A solubilization buffer (100 μL, 10% SDS in 0.01 N HCl) was added and the plate was incubated at 37° C./5% CO2 overnight. The assay was then quantified at 595 nm on a Tecan Spectrafluor Plus plate reader (Tecan Systems, San Jose, Calif.).
In this experiment, Aβ42 was prepared at concentrations of 1 mM, 850 μM, 650 μM, 450 μM, 250 μM and 100 μM in 50 mM phosphate pH 9.0 buffer as described in the Example 8. After 7 days of incubation at 4° C., samples were tested by the MTT assay to determine bioactivity.

Q: With “Aβ40: HFIP-dried Aβ40 monomer peptide, solubilized in DMSO and incubated in 50 mM phosphate, pH 9.0 [reference compound]” as the substance, how does the oligomer formation ([1]; 400 μM in 50 mM phosphate, pH 9.0, 24 hour incubation at 4° C.) read?
A: primarily stays monomeric and does not form oligomers

Q: With Aβ peptide (1-42) [Aβ42] as the substance, how does the MTT reduction ([2]; stock concentrations 450 μM to 650 μM in 50 mM phosphate pH 9.0, 7 days at 4° C., test concentration 5 μM, 4 h incubation) read?
A: about 55%

Q: What about the MTT reduction ([2]; stock concentrations below 450 μM and above 650 μM in 50 mM phosphate pH 9.0, 7 days at 4° C., tested at 1 μM and 5 μM) of the same substance?
A: 80-105%

Q: And the bioactivity after storage ([2]; stock concentrations of 450 μM to 650 μM in 50 mM phosphate, pH 9.0 buffer, storage at 2-8° C.)?
A: remain bioactive for up to seven days

Q: What about the “storage stability of oligomeric (150 kDa) species” value ([1]; stock concentration 450 μM in 50 mM phosphate, pH 9.0 buffer, 1, 4 and 7 days at 4° C., 0.5% glutaraldehyde cross-linking) of the same substance?
A: can be stored for seven days at 4 °C

From patent US20100240868A1, “Composition and Method for a Producing Stable Amyloid Beta Oligomers of High Molecular Weight” (priority 2005, published 2010)
